Measurements from patent publication US20030161893A1, “PTPase inhibitors and methods of using the same” (priority 2001, published 2003).

Key:
[1] = target: T1, PRL-3 (Homo sapiens, UniProt O75365); assay: In vitro PTPase assay, recombinant PRL-3; type: biochemical
T1 construct: cDNAs of human PRL-1, PRL-2 and PRL-3 coding region were derived by RT-PCR from H9 cells; made in house; host or cells: DH5a bacteria (E. coli)
Excerpt: Sodium stibogluconate, suramin, sodium orth ovanadate and GST fusion protein of SHP-1 have been described previously (Pathak et al., J. Imumol. 167, 3391 (2001)). Meglumine antimonate was obtained from Aventis. cDNAs of human PRL-1, PRL-2 and PRL-3 coding region were derived by RT-PCR from H9 cells (Safai, et al., Lancet 1, 1438 (1984)) and inserted in frame into the pGEX vector. cDNA of PRL-1R86 was generated by recombinant DNA technique using PRL-1 cDNA as template following established procedures (Jiao, et al., Mol. Cell. Biol. 16, 6985 (1996)). GST fusion proteins of the PRL phosphatases were prepared from DH5a bacteria transformed with the pGEX fusion protein constructs as described previously (Yi, et al., Mol. Cell. Biol. 12, 836 (1992)). cDNAs encoding the PRLs tagged at the N-termini with the Flag epitope (Castrucci, et al., J. Virol. 66, 4647 (1992)) were generated via recombinant DNA technique, sequenced to confirm their identities and cloned into the pBabepuro vector (Yang, et al., Blood 91, 3746 (1998)). Anti-Flag monoclonal antibody (M2, Sigma) was purchased from a commercial source. A synthetic phosphotyrosine peptide (Arg-Arg-Leu-Ile-Glu-Asp-Ala-Gle-Tyr-Ala-Ala-Arg-Gly (SEQ ID NO: 3), wherein the tyrosine is phosphorylated; UBI) and DiFMUP (6, 8-difluoro-4-methylumbelliferyl phosphate, Molecular Probes) were purchased as substrates for PTPase assays.
In vitro PTPase assays were used to determine the effects of compounds on recombinant PTPases, following established procedures using a synthetic phosphotyrosine peptide or DiFMUP as the substrate (Pathak et al., J. Imumol. 167, 3391 (2001)). Briefly, individual PTPases (0.1 μg/reaction) in 50 μL of PTPase buffer (50 mM Tris, pH 7.4) were incubated at 22° C. for 10 minutes or as indicated in the absence or presence of inhibitory compounds. Substrates (0.2 mM phosphotyrosine peptide) were then added and allowed to react at 22° C. for 18 hrs. PTPase activity of individual reactions was measured by adding 100 μL of malachite green solution (UBI) and then quantifying the amounts of free phosphate cleaved by the PTPase from the peptide substrate by spectrometry (OD660 nm). PTPase assays using DiFMUP as a substrate were conducted following a previously described procedure (Matter, et al., Biochem. Biophys. Res. Comm. 283, 1061 (2001)). Relative PTPase activities were calculated based on the formula: (PTPase activity in the presence of an inhibitory compound/PTPase activity in the absence of the compound)×100%. To assess the reversibility of PTPase inhibition, GST fusion proteins of the PTPases bound on glutathione beads (Pharmacia) were pre-incubated with cold Tris buffer (50 mM Tris, pH 7.0) or Tris buffer containing the inhibitor at 4° C. for 30 minutes. The beads were then washed three times in cold Tris buffer or not washed prior to subjecting to in vitro PTPase assays.

[2] = target: T2, SHP-1 (Mus musculus, UniProt P29351); assay: In vitro PTPase assay, GST/SHP-1 fusion protein; type: biochemical
T2 construct: made in house
T2 sequence (P29351 whole entry, the tested form may be a part): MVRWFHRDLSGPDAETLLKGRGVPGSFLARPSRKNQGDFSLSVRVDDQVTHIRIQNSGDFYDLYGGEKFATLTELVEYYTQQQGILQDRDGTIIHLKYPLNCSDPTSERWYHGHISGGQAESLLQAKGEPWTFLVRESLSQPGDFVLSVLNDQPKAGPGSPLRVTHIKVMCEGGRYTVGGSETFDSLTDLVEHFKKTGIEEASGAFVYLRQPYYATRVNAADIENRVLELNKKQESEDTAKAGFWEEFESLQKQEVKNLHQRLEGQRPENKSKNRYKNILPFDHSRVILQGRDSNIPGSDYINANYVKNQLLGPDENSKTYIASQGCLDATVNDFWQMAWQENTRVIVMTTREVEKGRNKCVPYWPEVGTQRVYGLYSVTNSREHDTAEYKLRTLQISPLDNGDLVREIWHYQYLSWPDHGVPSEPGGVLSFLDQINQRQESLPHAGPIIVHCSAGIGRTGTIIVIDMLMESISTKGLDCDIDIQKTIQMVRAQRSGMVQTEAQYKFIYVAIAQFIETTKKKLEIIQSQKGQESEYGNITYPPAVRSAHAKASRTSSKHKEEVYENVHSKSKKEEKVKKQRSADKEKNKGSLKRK
Experimental: In vitro PTPase activities were measured using the commercial protein tyrosine phosphatase assay kit (Upstate Biotechnology, Inc. (“UBI”)) following established procedure known to one of skill in the art. […] 100 μl of Malachite Green solution was added and incubated for 5 minutes, and the absorbance at 660 nm was measured after 5 minutes.
The beads were then either subjected to in vitro PTPase assays or washed 3 times in Tris buffer then subjected to in vitro PTPase assays.
Briefly, individual PTPases (0.1 μg/reaction) in 50 μL of PTPase buffer (50 mM Tris, pH 7.4) were incubated at 22° C. for 10 minutes or as indicated in the absence or presence of inhibitory compounds. […] […] […] Relative PTPase activities were calculated based on the formula: (PTPase activity in the presence of an inhibitory compound/PTPase activity in the absence of the compound)×100%. To assess the reversibility of PTPase inhibition, GST fusion proteins of the PTPases bound on glutathione beads (Pharmacia) were pre-incubated with cold Tris buffer (50 mM Tris, pH 7.0) or Tris buffer containing the inhibitor at 4° C. for 30 minutes. The beads were then washed three times in cold Tris buffer or not washed prior to subjecting to in vitro PTPase assays.

[3] = test system: WM35 cells; assay: Cell proliferation assay (MTT), WM35 melanoma cells; type: cell-based, human
Experimental: For cell proliferation assays, cells were grown in 10% FCS culture medium containing various amounts of IFNs and/or sodium stibogluconate in 96 well plates and cultured at 37° C. for 3 or 6 days as indicated. The numbers of viable cells in proliferation assays were determined by MTT assays as described in Phatak et al., J. Immunol. 167, 3391 (2001).

[4] = test system: NB4 cells; assay: NB4 cell differentiation (NBT reduction, CD11b); type: cell-based, human
Experimental: Differentiation of AML cell lines was assessed by their ability to produce superoxide as measured by reduction of NBT to formazan and by analysis of expression of CD11b surface marker by flow cytometry. For NBT reduction, each cell suspension was mixed with an equal volume of solution containing 1 mg/ml of NBT (Sigma) and 2.5 μg/ml of TPA for 30 minutes at 37° C. After incubation, cells containing the purple formazan deposits and cells devoid of NBT-reducing activity (white cells) in each sample were determined by counting 200 cells under microscope. Data is expressed as a percentage based on the following ratio: purple cells/purple+white cells. For analysis of cell surface antigens, cells were exposed to phycoerythrin (PE)-conjugated murine anti-human CD11b (DAKO Corp., Carpinteria, Calif.). Analysis of fluorescence was performed on a FACScan flow cytometer (Beckton Dickinson, Mountain View, Calif.).

T1 sequence (O75365 whole entry): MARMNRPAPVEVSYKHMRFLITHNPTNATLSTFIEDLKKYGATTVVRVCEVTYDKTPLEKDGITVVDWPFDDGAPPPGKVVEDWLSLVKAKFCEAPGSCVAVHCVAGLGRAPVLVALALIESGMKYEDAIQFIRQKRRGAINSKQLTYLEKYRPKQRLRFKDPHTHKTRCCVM

Q: For O.O.O.O.O.O.O.O.O.O=C([O-])[C@@H]1[O][Sb]2([O-])([O][Sb]34([OH])[O][C@H]([C@H](O)CO)[C@H]([O]3)[C@H](C(=O)[O-])[O]4)[O][C@H]([C@H](O)CO)[C@@H]1[O]2.[Na+].[Na+].[Na+] [sodium stibogluconate], which “inactivation of PRL-3 with prolonged pre-incubation” value ([1]; 10 μg/ml, pre-incubation 30 or 60 minutes) is on record?
A: nearly complete inactivation

Q: And the “inhibition of PRL-3 with DiFMUP substrate” value ([1]; DiFMUP, comparable conditions)?
A: also detected

Q: What about the “reversibility of PRL-3 inhibition by washing” value ([1]; PRL-3 bound to glutathione beads) of the same molecule?
A: not relieved by a washing process

Q: And the “dephosphorylation of pNPP by SHP-1, SHP-2 and PTP1B” value ([2]; pNPP substrate)?
A: similarly inhibited

Q: What about the “activity against recombinant SHP-1 of HPLC fractions and parental mixture” value ([2]; parental mixture at Sb concentration of 10 μg/ml) of the same molecule?
A: inactivated SHP-1

Q: What about the “reversibility of SHP-1 inhibition by washing” value ([2]; pre-incubated at 4° C. 30 minutes, beads washed 3 times) of the same molecule?
A: not affected by washing

Q: And the “sensitivity of WM35 cells” value [3]?
A: minimally affected

Q: What about the “interaction with ATRA in differentiation induction” value [4] of the same molecule?
A: did not synergize with ATRA

Q: And the “reversibility of induced NB4 differentiation after drug removal” value ([4]; 6 days with drug (10 or 100 μg/ml), washed, 6 days without)?
A: not reversed
